Laboratory results reported in patent US5437864A, “Method of inhibiting blood coagulation in extracorporeal circulation by inhibiting human tissue factor” (The Scripps Research Institute, priority 1992, dated 1995).
Read-outs that look alike come from different tables or passages of the source. No end group written: not given here.

Key:
factor VII/VIIa [1] = target: T1, factor VII/VIIa (Homo sapiens, UniProt P08709); assay: Inhibition of huTF-initiated coagulation by polypeptide analogs of huTFh; format: biochemical; conditions: for inhibition of huTF-initiated coagulation, dose-response (FIG. 12): non-lipidated polypeptides, various concentrations
T1 construct: from tissue
T1 sequence (P08709 61-466): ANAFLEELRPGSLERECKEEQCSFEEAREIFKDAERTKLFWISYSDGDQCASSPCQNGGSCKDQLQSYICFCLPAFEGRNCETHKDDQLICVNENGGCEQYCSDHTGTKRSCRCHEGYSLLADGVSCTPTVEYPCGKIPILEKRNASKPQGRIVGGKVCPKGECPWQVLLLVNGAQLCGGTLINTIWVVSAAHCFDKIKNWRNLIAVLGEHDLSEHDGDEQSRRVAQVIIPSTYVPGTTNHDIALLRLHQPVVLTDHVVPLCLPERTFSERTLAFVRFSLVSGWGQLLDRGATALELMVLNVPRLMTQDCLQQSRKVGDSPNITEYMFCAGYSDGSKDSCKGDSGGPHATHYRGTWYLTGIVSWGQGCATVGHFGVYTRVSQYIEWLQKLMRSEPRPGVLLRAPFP
Description: The ability of the polypeptides of the present invention to inhibit huTF-initiated coagulation were assayed by first incubating the polypeptides in the presence of factor VII/VIIa and calcium ions, and then adding this mixture to factor VII/VIIa-deficient plasma and evaluating clotting times.
Human factor VII/VIIa was isolated as described in Example 3. Ten microliters of a solution of 200 ng of this isolated factor VII/VIIa per ml of HBS/BSA was added to a solution comprising 100 ul of HBS, 20 ul of 25 mM CaCl2, and with 100 ul of TBS/Triton containing synthetic polypeptide. Numerous admixtures were so prepared which contained varying concentrations of the polypeptide and were then maintained at 37 degrees C. for 15 minutes. Relipidated tissue factor prepared as described in Example 4 was diluted in HBS/BSA such that 10 ul would yield a coagulation time of approximately 45 seconds when tested in the coagulation assay described in Example 2. The above maintained admixture was further admixed with this 10 ul dilution of relipidated huTF, with 100 ul of 25 mM CaCl2, and with 100 ul of factor VII/VIIa-deficient plasma (George King Bio-Medical, Inc., Overland Park, Kans.) diluted 1 part plasma to 1.5 parts HBS. The clotting time was then determined and plotted as described in Example 2. A prolongation of clotting time was taken to indicate inhibition of coagulation by the synthetic polypeptide. Percent inhibition was calculated as described in Example 10. Polypeptides producing at least a 30% inhibition of coagulation were considered huTFh binding site polypeptide analogs, i.e., polypeptides p26-49, p146-167 and p161-189 as shown in section I of Table 4.
Lipidated synthetic peptides were prepared in the manner described in Example 4 for relipidation of isolated huTF except that synthetic polypeptide was substituted for isolated huTF. The ratio 52 to 1 of lipid to polypeptide (w/w) was routinely utilized. Lipidated polypeptides producing at least 30% inhibition of coagulation were considered huTFh binding site polypeptide analogs, when present in lipidated form, i.e., those polypeptides shown in section II of Table 4.
The results of this study are shown in FIG. 12 and indicate that p24-35 and p152-169 are capable of inhibiting 45% and 25% respectively, of the huTF-initiated coagulation when utilized at 10 uM concentrations. It should be noted that in this study background inhibitions such as for those peptides indicated by a closed circle in FIG. 12 were lower than the study shown in Table 4. As a result, polypeptides producing at least a 20% inhibition of coagulation at a concentration of 10 uM in this study were considered huTF binding site polypeptide analogs.

factor VII/VIIa [2] = target: T1, factor VII/VIIa; assay: Inhibition of factor X activation on J82 cells by huTFh polypeptides; format: cell-based; conditions: for Optical Density: O.D. at 405 nm of factor Xa chromogenic product, 50 ul polypeptide solution at 100 uM, PBS control 0.960, no factor VII 0.005, significant if about 0.500 or less
Description: Fifty microliters (ul) of a solution containing a huTF polypeptide analog at 100 uM […] in TBS was added to each well of a 96-well of a 96-well flat bottom polystyrene assay plate. Then to each well was admixed 25 ul of a solution containing factor VII/VIIa isolated as described in Example 3 at a concentration of 1 nm in TBS, further admixed with 25 ul of 20 mM calcium chloride in TBS and the resulting admixture is maintained at room temperature for 30 minutes.
Human bladder cell carcinoma J82 cells were obtained from the American Type Culture Collection (ATCC HTB 1; Rockville, Md.) and cultured as described by Fair et al., J. Biol. Chem., 262:11692-11698 (1987) which methods are incorporated herein by reference.
5×10^4 J82 cells are suspended into 50 ul of TBS and admixed to each well of the polystyrene assay plate after the above maintenance period. Immediately thereafter 25 ul of factor X, isolated as described by Fair et al., J. Biol. Chem., 262:11692-11698 (1987), at a concentration of 100 nM in TBS and 50 ul of Xa chromogenic substrate S-2222 (1 mg/ml in TBS) were admixed, and the resulting admixture was maintained for two minutes at room temperature to form a chromogenic reaction product containing solution.
The amount of chromogenic product formed was quantitated by measuring the amount of optical density (O.D.) at 405 nanometers (nm) using a V-max 96 well spectrophotometer (Molecular Devices, Mountain View, Calif.). Controls with PBS in place of polypeptide or with no factor VII added were also run to establish the maximum and minimum possible O.D. values.

TF = conditions: Pitlick, J. Clin. Invest., 55:175 (1975); cited from earlier work
baboon TF = conditions: Taylor et al., J. Clin. Invest. (1987); cited from earlier work
[3] = non-phospholipidated peptides, 10 μM, read-out: Inhibition (Percent Inhibition of huTF-initiated coagulation)
[4] = Example 17 study (FIG. 12), non-lipidated, 10 uM, read-out: inhibition of huTF-initiated coagulation
[5] = phospholipidated peptides, 10 μM, read-out: Inhibition (Percent Inhibition of huTF-initiated coagulation)
[6] = phospholipidated peptides, 10 μM
[7] = non-phospholipidated peptides, 10 μM

Substance	inhibition at 10 µM (factor VII/VIIa [1]; [3]) [%]	Optical Density (factor VII/VIIa [2])	further results
H-IYTLYYWKSSSSGKKTAK-OH [p152-169, H--IYTLYYWKSSSSGKKTAK--OH]	–	–	inhibition at 10 µM (factor VII/VIIa [1]; [4]): 25%
H-SGTTNTVAAYNLTWKSTNFKTILEWEPKPV-OH [p1-30]	25	1.098 ± 0.028	inhibition at 10 µM (factor VII/VIIa [1]; [5]): 81%
p26-40: phospholipidated huTFh polypeptide analog of Table 4; sequence not printed; probably p26-49 (EPKPVNQVYTVQIST; also: phospholipidated (position not given here); UniProt P13726 58-72, looked up, fragment)	–	–	Inhibition (Percent Inhibition of huTF-initiated coagulation) (factor VII/VIIa [1]; [6]): 83.0%
concanavalin A	–	–	inhibition of TF activity (TF): inhibits TF activity
p1-18: huTFh polypeptide; designation represents included residues of FIG. 1; sequence not printed (SGTTNTVAAYNLTWKSTN; UniProt P13726 33-50, looked up, fragment)	–	1.007 ± 0.087	–
p50-71: phospholipidated huTFh polypeptide analog of Table 4; sequence not printed; probably p56-71 (FYTTDTECDLTDEIVKDVKQTY; also: phospholipidated (position not given here); UniProt P13726 82-103, looked up, fragment)	–	–	Inhibition (Percent Inhibition of huTF-initiated coagulation) (factor VII/VIIa [1]; phospholipidated peptides, 30 μM): 73.3%
p11-28: huTFh polypeptide; designation represents included residues of FIG. 1; sequence not printed (NLTWKSTNFKTILEWEPK; UniProt P13726 43-60, looked up, fragment)	–	0.687 ± 0.071	–
p41-71: huTFh polypeptide analog of Table 4; sequence not printed; probably p40-71 (KSGDWKSKCFYTTDTECDLTDEIVKDVKQTY; UniProt P13726 73-103, looked up, fragment)	–	–	Inhibition (Percent Inhibition of huTF-initiated coagulation) (factor VII/VIIa [1]; [7]): 25.0%
H-EPKPVNQVYTVQISTKSGDWKSKC-OH [p26-49]	–	0.437 ± 0.020	binding to factor VII/VIIa and inhibition of factor X activation (factor VII/VIIa [2]): bind to factor VII/VIIa and inhibit its ability to form a TF:VII/VIIa complex that can activate factor X
p40-49: huTFh polypeptide analog of Table 4; sequence not printed; probably p41-49 (TKSGDWKSKC; UniProt P13726 72-81, looked up, fragment)	–	–	Inhibition (Percent Inhibition of huTF-initiated coagulation) (factor VII/VIIa [1]; [7]): 25.0%
activated protein C	–	–	coagulopathic response and lethal effects of LD100 concentrations of E. coli in baboons (baboon TF): prevents the coagulopathic response and lethal effects
H--TKSGDWKSKCFYTTDTECDLTDEIVKDVKQTY--OH (H-TKSGDWKSKCFYTTDTECDLTDEIVKDVKQTY-OH; cysteine pairing not given here) [p40-71]	–	0.814 ± 0.053	inhibition of huTF-initiated coagulation, dose-response (FIG. 12) (factor VII/VIIa [1]): no substantial inhibition; Inhibition (Percent Inhibition of huTF-initiated coagulation) (factor VII/VIIa [1]; [6]): 65.0%
H-EWEPKPVNQVYT-OH [p24-35, H--EWEPKPVNQVYT--OH]	–	0.477 ± 0.017	inhibition at 10 µM (factor VII/VIIa [1]; [4]): 45%; binding to factor VII/VIIa and inhibition of factor X activation (factor VII/VIIa [2]): bind to factor VII/VIIa and inhibit its ability to form a TF:VII/VIIa complex that can activate factor X

Further lines, with some results ahead:

inhibition at 10 µM (factor VII/VIIa [1]; [3]) [%]	Optical Density (factor VII/VIIa [2])	Substance	further results
25	0.781 ± 0.047	H-LARVFSYPAGNVESTGSAGEPLYENSPEFTPYLC-OH [p72-104]	inhibition of huTF-initiated coagulation, dose-response (FIG. 12) (factor VII/VIIa [1]): no substantial inhibition
20	0.625 ± 0.031	H-QAVIPSRTVNRKSTDSPVEC-OH [p190-209]	–
–	0.600 ± 0.023	p161-190: huTFh polypeptide of Table 10; sequence not printed; probably p161-189 (SSSGKKTAKTNTNEFLIDVDKGENYCFSVQ; UniProt P13726 193-222, looked up, fragment)	–
20	0.818 ± 0.055	H-YENSPEFTPYLETNLGQPTIQSFEQVGTKV-OH [p94-123]	inhibition of huTF-initiated coagulation, dose-response (FIG. 12) (factor VII/VIIa [1]): no substantial inhibition; inhibition at 10 µM (factor VII/VIIa [1]; [5]): 93.7%
–	0.389 ± 0.035	H-YWKSSSSGKKTAK-OH [p157-169, H--YWKSSSSGKKTAK--OH]	binding to factor VII/VIIa and inhibition of factor X activation (factor VII/VIIa [2]): bind to factor VII/VIIa and inhibit its ability to form a TF:VII/VIIa complex that can activate factor X
25	–	H-ECDLTDEIVKDVKQTY-OH [p56-71, H--ECDLTDEIVKDVKQTY--OH]	–
20	0.715 ± 0.042	H-DSPVECMGQEKGEFREIFYIIGA-OH [p204-226]	–
10	0.889 ± 0.067	H-TKVNVTVEDERTLVRRNNTFLSLRDVFGKDLIYTL-OH [p121-155]	inhibition at 10 µM (factor VII/VIIa [1]; [5]): 55%
–	0.004 ± 0.001	H-VFGKDLIYTLYYWKSSSSGKKT-OH [p146-167]	inhibition at 10 µM (factor VII/VIIa [1]; [5]): 80%; binding to factor VII/VIIa and inhibition of factor X activation (factor VII/VIIa [2]): bind to factor VII/VIIa and inhibit its ability to form a TF:VII/VIIa complex that can activate factor X
–	0.507 ± 0.053	H-RDVFGKDLIYTLYYWK-OH [p144-159, H--RDVFGKDLIYTLYYWK--OH]	binding to factor VII/VIIa and inhibition of factor X activation (factor VII/VIIa [2]): bind to factor VII/VIIa and inhibit its ability to form a TF:VII/VIIa complex that can activate factor X
≥ 30	–	H-SSSGKKTAKTNTNEFLIDVDKGENYCFSV-OH [p161-189]	inhibition of huTF-initiated coagulation, dose-response (FIG. 12) (factor VII/VIIa [1]): no substantial inhibition; inhibition at 10 µM (factor VII/VIIa [1]; [5]): 94%
–	0.619 ± 0.047	p244-263: huTFh polypeptide of Table 10; sequence not printed; probably p245-263 (KCRKAGVGQSWKENSPLNVS; UniProt P13726 276-295, looked up, fragment)	–
